We go through 17 compounds from patent publication US10301292B2, “Bicyclic compound” (Takeda Pharmaceutical Company Limited, priority 2014, dated 2019).

One test relates to HCT116 cells. The test is described as follows: Growth inhibitory activity on HCT116 cell (CellTiter-Glo). The conditions noted are these: table head: 10 μM (text b2498: 1 μM), 3 days incubation; for inhibition at 10 µM: Homo sapiens, HCT-116, 72 h, read-out: HCT116 cell proliferation inhibitory rate (%) at 10 μM. Format: cell-based. The protocol: The growth inhibitory activity of the compound on HCT116 cell was evaluated by the following method.
HCT116 cells were seeded in a 384 well blackplate at 900 cells/30 μL/well, and maintained in an RPMI medium (Wako)) containing an assay medium (2% fetal bovine serum, 50 Unit/mL penicillin, 50 μg/mL streptomycin (Invitrogen). The next day, a test compound dissolved in dimethyl sulfoxide (DMSO) was diluted with the assay medium, and the obtained compound solution was added by 10 μL to each well of a plate containing HCT116 cells and incubated at 37° C., 5% CO2 (test compound addition group).
A similar reaction was performed without adding a test compound (test compound non-addition group).
Furthermore, a similar reaction was performed under the conditions without adding HCT116 cell and a test compound (control group).
After 3 days, 20 μL of a CellTiter-Glo reagent (Promega KK) was added to the well, and the mixture was stirred for 10 min. Thereafter, the luminescence value of each well was measured by the EnVision™ multilabel counter (Perkin Elmer Inc.).
The HCT116 cell proliferation inhibitory rate (%) of the test compound was determined by the following calculation formula. (1−(luminescence of test compound addition group−luminescence of control group)÷(luminescence of test compound nonaddition group−luminescence of control group))×100
(In ATP-based viability assays light output follows the ATP content of the culture.)

Another test has as its target T1, human ACC1 (Homo sapiens, UniProt Q13085).
T1 construct: His tag (from vector pFAST-BacHTc; protein captured on Ni-NTA) (N); made in house; host or cells: SF-9 insect cells, recombinant baculovirus BAC-ACC1
The test is described as follows: Measurement of ACC1 inhibitory activity (Malonyl-CoA production, RapidFire-mass spectrometry). To be noted: 10 μM of the test compound, recombinant human ACC1; for inhibition at 10 µM: read-out: ACC1 inhibitory rate (%) at 10 μM. Format: biochemical. Here is the method:
(1) Cloning of Human ACC1 Gene and Preparation of Recombinant Baculovirus
Human ACC1 gene was cloned by PCR using a human liver cDNA library (Clontech) as a template and Primer 1 and Primer 2 shown below. Primer 1 and Primer 2 were prepared by adding SalI, NotI restriction enzyme recognition sequences based on the information of the base sequence of human ACC1 gene (Genbank Accession U19822).
PCR was performed using Pyrobest DNA polymerase (TAKARA BIO INC.). The obtained PCR product was cloned to pT7 Blue vector (Novagen) and after confirmation of the base sequence, digested with restriction enzymes SalI and XbaI. The obtained DNA fragment was inserted into pFAST-BacHTc (Invitrogen) digested with restriction enzymes SalI and XbaI to give expression plasmid ACC1/pFAST-BacHTc.
Using the expression plasmid ACC1/pFAST-BacHTc and BAC-TO-BAC Baculovirus Expression System (Invitrogen), virus stock BAC-ACC1 of recombinant Baculovirus was prepared.
(2) Preparation of ACC1 Protein
SF-9 cells (Invitrogen) were inoculated to a medium (10 L) for insect cells (Sf-900IISFM medium (Invitrogen) containing 5% fetal bovine serum (Trace), 50 mg/L Gentamicin (Wako Pure Chemical Industries, Ltd.), 0.1% Pluronic F-68 (Invitrogen)) at 1.0×10^6 cells/mL, and cultured with shaking in Wave Bioreactor (GE Healthcare) at 27° C., 20 rpm, rocking angle 10°, oxygen concentration 30%.
On day 2 of the culture, recombinant Baculovirus BAC-ACC1 was added, and the cells were cultured for 3 days. The culture medium was centrifuged at 4000×g for 10 min to give virus-infected cells. The cells were washed with phosphate buffered saline (Invitrogen) and centrifuged under the same conditions. The obtained cells were cryopreserved at −80° C.
The cryopreserved cells were thawed in ice and suspended in 800 mL of 25 mM HEPES buffer (pH 7.5) containing 10% Glycerol, 0.3 M NaCl, 1 mM EDTA, 25 mM Sodium β-Glycerophosphate and 1 mM Sodium Orthovanadate, and supplemented with Complete Protease Inhibitor (Roche). The obtained suspension was homogenized two times in a polytron homogenizer (Kinematica) at 20,000 rpm for 20 sec. The obtained cell disruption solution was clarified by centrifugation at 186,000×g for 60 min and the supernatant was passed through Ni-NTA Superflow Cartridges (5 mL) (QUIAGEN). Furthermore, it was washed with 25 mM HEPES buffer (pH 7.5) containing 20 mM Imidazole, 0.3 M NaCl, and eluted with 25 mM HEPES buffer (pH 7.5) containing 250 mM Imidazol, 0.3 M NaCl. The eluate was concentrated by Amicon Ultra-15 (Nihon Millipore K.K.) having a fraction molecular weight of 50K. The obtained concentrate was subjected to gel filtration with 50 mM HEPES buffer (pH 7.5) containing 10 mM MgCl2, 2 mM dithiothreitol, 10 mM tripotassium citrate, 0.3 M NaCl by using HiLoad 26/60 Superdex200 prep grade gel filtration column (GE Healthcare) to give ACC1. The obtained ACC1 was cryopreserved at −80° C.
(3) Measurement of ACC1 Inhibitory Activity
ACC1 obtained in the above-mentioned (2) was diluted with an enzyme reaction buffer (50 mM HEPES (pH 7.5), 10 mM MgCl2, 10 mM Tripottasium Citrate, 2 mM Dithiothreitol, 0.001% Fatty acid free BSA) to a concentration of 0.2 μg/ml, and the mixture was added to each well of a 384 well assay plate by 10 μl. A test compound dissolved in dimethyl sulfoxide (DMSO) was diluted with an enzyme reaction buffer and the resulting solution (5 μl) was added to each well. The mixture was incubated at room temperature for 60 min. Then, a substrate solution (50 mM KHCO3, 200 μM ATP, 200 μM Acetyl-CoA, 5 μl) was added to each well, and the mixture was reacted at room temperature for 30 min. The reaction was quenched by adding a reaction quenching liquid (1.3% formic acid, 0.2 μM Malonyl-^13C3-CoA) by 60 μL each to the obtained reaction mixtures (test compound addition group).
In addition, a reaction was performed in the same manner as above and without adding the test compound (test compound non-addition group). […]

Take `CC(=O)NC(C)c1ccc2cc(-c3ccc(Oc4cccc(OCC5CC5)c4)nc3)oc2c1` (stereo not shown) [Example 67, N-(1-(2-(6-(3-(cyclopropylmethoxy)phenoxy)pyridin-3-yl)-1-benzofuran-6-yl)ethyl)acetamide]: the inhibition at 10 µM with HCT116 cells turned out to be 38%; at human ACC1 it was 97%.
For the compound `CC(=O)NC(C)c1ccc2cc(-c3ccc(Oc4cccc(OC[C@@H]5CC5(F)F)c4)nc3)oc2c1` (stereo partly drawn) [Example 68, N-(1-(2-(6-(3-(((1S)-2,2-difluorocyclopropyl)methoxy)phenoxy)pyridin-3-yl)-1-benzofuran-6-yl)ethyl)acetamide], the figures for the inhibition at 10 µM with HCT116 cells and at human ACC1 were 39% and 100%, respectively.
For `CC(=O)NC(C)c1ccc2oc(-c3ccc(Oc4cccc(OCC5CC5)c4)nc3)nc2c1` (stereo not shown) [Example 71, N-(1-(2-(6-(3-(cyclopropylmethoxy)phenoxy)pyridin-3-yl)-1,3-benzoxazol-5-yl)ethyl)acetamide], in that order: 41% and 95%.
For `CC(=O)NC(C)c1ccc2sc(-c3ccc(Oc4cccc(OCC5CC5)c4)cc3)cc2c1` (stereo not shown) [Example 73, N-(1-(2-(4-(3-(cyclopropylmethoxy)phenoxy)phenyl)-1-benzothiophen-5-yl)ethyl)acetamide], in that order: 28% and 90%.
`CC(=O)NC(C)c1ccc2sc(-c3ccc(Oc4cccc(OCC5CC5)c4)nc3)nc2c1` (stereo not shown) [Example 75, N-(1-(2-(6-(3-(cyclopropylmethoxy)phenoxy)pyridin-3-yl)-1,3-benzothiazol-5-yl)ethyl)acetamide]: the inhibition at 10 µM turned out to be 40% in the test with HCT116 cells and 94% on human ACC1.
Taken in the same sequence, the figures for `CC(=O)NC(C)c1ccc2nc(-c3ccc(Oc4cccc(OC[C@@H]5CC5(F)F)c4)cn3)oc2c1` (stereo partly drawn) [Example 76, N-(1-(2-(5-(3-(((1S)-2,2-difluorocyclopropyl)methoxy)phenoxy)pyridin-2-yl)-1,3-benzoxazol-6-yl)ethyl)acetamide] were 45% and 99%.
For `CC(=O)NC(C)c1ccc2nc(-c3ccc(Oc4cccc(OC[C@@H]5CC5(F)F)c4)nc3)oc2c1` (stereo partly drawn) [Example 80, N-(1-(2-(6-(3-(((1S)-2,2-difluorocyclopropyl)methoxy)phenoxy)pyridin-3-yl)-1,3-benzoxazol-6-yl)ethyl)acetamide], in that order: 33% and 100%.
Taken in the same sequence, the figures for `CC(=O)NC(C)c1ccc2nc(-c3ccc(Oc4cc(OCC5CC5)ccn4)cc3)oc2c1` (stereo not shown) [Example 82, N-(1-(2-(4-((4-(cyclopropylmethoxy)pyridin-2-yl)oxy)phenyl)-1,3-benzoxazol-6-yl)ethyl)acetamide] were 40% and 98%.
For `CC(=O)NC(C)c1ccc2cc(-c3ccc(Oc4cccc(OCC5CC5)c4)cc3)nn2c1` (stereo not shown) [Example 86, N-(1-(2-(4-(3-(cyclopropylmethoxy)phenoxy)phenyl)pyrazolo[1,5-a]pyridin-6-yl)ethyl)acetamide], the inhibition at 10 µM with HCT116 cells was found to be 34%; at human ACC1, 95%.
For `CC(=O)NC(C)c1ccc2nc(-c3ccc(Oc4cccc(OCC5CC5)c4)cc3)oc2c1F` (stereo not shown) [Example 90, N-(1-(2-(4-(3-(cyclopropylmethoxy)phenoxy)phenyl)-7-fluoro-1,3-benzoxazol-6-yl)ethyl)acetamide], in that order: 22% and 101%.
For `CC(=O)NC(C)C1CCc2nc(-c3ccc(Oc4cccc(OCC5CC5)c4)cc3)oc2C1` (stereo not shown) [Example 95, N-(1-(2-(4-(3-(cyclopropylmethoxy)phenoxy)phenyl)-4,5,6,7-tetrahydro-1,3-benzoxazol-6-yl)ethyl)acetamide], in that order: 11% and 97%.
On to `CC(=O)NC(C)C1CCc2nc(-c3ccc(Oc4cccc(OCC5CC5)c4)cc3)oc2C1` (stereo not shown) [Example 95b, N-(1-(2-(4-(3-(cyclopropylmethoxy)phenoxy)phenyl)-4,5,6,7-tetrahydro-1,3-benzoxazol-6-yl)ethyl)acetamide], for which the “HCT116 cell proliferation inhibitory rate (%) at 10 μM” value in the test with HCT116 cells was 20%. Moreover, the “ACC1 inhibitory rate (%) at 10 μM” value at human ACC1 (10 µM) came out at 96%.
On to `CC(=O)NC(C)c1ccc2nc(-c3ccc(Oc4cccc(OCC5CC5)c4)nn3)oc2c1` (stereo not shown) [Example 96, N-(1-(2-(6-(3-(cyclopropylmethoxy)phenoxy)pyridazin-3-yl)-1,3-benzoxazol-6-yl)ethyl)acetamide], for which the results for the inhibition at 10 µM with HCT116 cells and at human ACC1 were 23% and 100%, respectively.
Regarding `CC(=O)NC(C)c1ccc2nc(-c3cnc(Oc4cccc(OCC5CC5)c4)cc3C)oc2c1` (stereo not shown) [Example 97, N-(1-(2-(6-(3-(cyclopropylmethoxy)phenoxy)-4-methylpyridin-3-yl)-1,3-benzoxazol-6-yl)ethyl)acetamide], the inhibition at 10 µM came to 22% in the test with HCT116 cells and 92% at human ACC1.
Taken in the same sequence, the figures for `C[C@H](NC(N)=O)c1ccc2nc(-c3ccc(Oc4cccc(OCC5CC5)c4)nc3)oc2c1` [Example 98b, 1-((1S)-1-(2-(6-(3-(cyclopropylmethoxy)phenoxy)pyridin-3-yl)-1,3-benzoxazol-6-yl)ethyl)urea] were 47% and 98%.
Taken in the same sequence, the figures for `COC(=O)NC(C)c1ccc2nc(-c3ccc(Oc4cccc(OCC5CC5)c4)nc3)oc2c1` (stereo not shown) [Example 99, methyl (1-(2-(6-(3-(cyclopropylmethoxy)phenoxy)pyridin-3-yl)-1,3-benzoxazol-6-yl)ethyl)carbamate] were 26% and 98%.
As for `CNC(=O)NC(C)c1ccc2nc(-c3ccc(Oc4cccc(OCC5CC5)c4)nc3)oc2c1` (stereo not shown) [Example 100, 1-(1-(2-(6-(3-(cyclopropylmethoxy)phenoxy)pyridin-3-yl)-1,3-benzoxazol-6-yl)ethyl)-3-methylurea], the figures for the inhibition at 10 µM in the test on HCT116 cells and at human ACC1 were 28% and 94%, respectively.
